One compound from article PMC8654833 (Scientific Reports, 2021) can be followed below.

This experiment deals with Sod1^G86R mice. Briefly: Body weight, grip strength, onset and survival follow-up in ALS mouse model. The class given is in vivo. The conditions noted are these: for median survival: p > 0.05 vs vehicle (109 days). The source says:
Osmotic mini-pumps were collected at endstage, and mini-pump emptying was systematically checked. After mini-pump implantation, mice were longitudinally followed for body weight, grip strength and survival.
To this aim, we measured mitral valve thickness using histology (Fig. 3).
Sod1^G86R mice on FVB/N background were produced by rapid lineage extension at Charles River facility, France. The resulting animals were F1 hybrid FVB/NRj and FVB/NCrl. During experimentation, mice were housed at the animal facility of the Faculty of Medicine of the University of Strasbourg, in a conventional sanitary status. […] We included both females and males in equal proportions. […] Mice were sacrificed at end-stage by lethal intraperitoneal injection of pentobarbital (Doléthal 120 mg/kg, Vetoquinol, France). Spinal cord, brain and blood samples were then collected. All animal care and procedures were in accordance with institutional guidelines and European regulations.
Mice were visually monitored daily for any potential ethical issue. Body weight and muscular strength were monitored twice a week. Muscular strength was assessed using a gripmeter test (ALG01, Bioseb, France). Results are the mean of three successive measures and were normalized by body weight. Onset of the pathology was calculated as the time between birth and peak of body weight. Duration of the disease is the time between onset and death of the mouse. End-stage was defined as the inability of the animal to turn around after 3 s placed on the back, and subsequent euthanasia followed. Muscular strength and weight loss are presented as percent loss from disease onset. […] Survival is presented as Kaplan–Meier curves.

With `CC(N)Cc1c[nH]c2ccc(OCc3cccs3)cc12` (stereo not drawn) [BW, 1-[5-(thiophen-2-ylmethoxy)-1H-indol-3-yl]propan-2-amine], the median survival is, setting by setting: (1 mg/kg/d) 107 days; (3 mg/kg/d) 109 days. Also, the disease onset entry (1 or 3 mg/kg/d, compared to vehicle) is “unchanged”.
